{"source": "patent US20230011131A1", "about": "“NOVEL COMPOUND FOR INHIBITING HISTONE ACETYLTRANSFERASE P300 AND ANTI-FIBROSIS COMPOSITION COMPRISING SAME” (REFURE LIFE SCIENCE INC., priority 2019, published 2023)", "target": "HAT p300 (histone acetyltransferase p300) (Homo sapiens, UniProt Q09472)", "sequence (Q09472 whole entry)": "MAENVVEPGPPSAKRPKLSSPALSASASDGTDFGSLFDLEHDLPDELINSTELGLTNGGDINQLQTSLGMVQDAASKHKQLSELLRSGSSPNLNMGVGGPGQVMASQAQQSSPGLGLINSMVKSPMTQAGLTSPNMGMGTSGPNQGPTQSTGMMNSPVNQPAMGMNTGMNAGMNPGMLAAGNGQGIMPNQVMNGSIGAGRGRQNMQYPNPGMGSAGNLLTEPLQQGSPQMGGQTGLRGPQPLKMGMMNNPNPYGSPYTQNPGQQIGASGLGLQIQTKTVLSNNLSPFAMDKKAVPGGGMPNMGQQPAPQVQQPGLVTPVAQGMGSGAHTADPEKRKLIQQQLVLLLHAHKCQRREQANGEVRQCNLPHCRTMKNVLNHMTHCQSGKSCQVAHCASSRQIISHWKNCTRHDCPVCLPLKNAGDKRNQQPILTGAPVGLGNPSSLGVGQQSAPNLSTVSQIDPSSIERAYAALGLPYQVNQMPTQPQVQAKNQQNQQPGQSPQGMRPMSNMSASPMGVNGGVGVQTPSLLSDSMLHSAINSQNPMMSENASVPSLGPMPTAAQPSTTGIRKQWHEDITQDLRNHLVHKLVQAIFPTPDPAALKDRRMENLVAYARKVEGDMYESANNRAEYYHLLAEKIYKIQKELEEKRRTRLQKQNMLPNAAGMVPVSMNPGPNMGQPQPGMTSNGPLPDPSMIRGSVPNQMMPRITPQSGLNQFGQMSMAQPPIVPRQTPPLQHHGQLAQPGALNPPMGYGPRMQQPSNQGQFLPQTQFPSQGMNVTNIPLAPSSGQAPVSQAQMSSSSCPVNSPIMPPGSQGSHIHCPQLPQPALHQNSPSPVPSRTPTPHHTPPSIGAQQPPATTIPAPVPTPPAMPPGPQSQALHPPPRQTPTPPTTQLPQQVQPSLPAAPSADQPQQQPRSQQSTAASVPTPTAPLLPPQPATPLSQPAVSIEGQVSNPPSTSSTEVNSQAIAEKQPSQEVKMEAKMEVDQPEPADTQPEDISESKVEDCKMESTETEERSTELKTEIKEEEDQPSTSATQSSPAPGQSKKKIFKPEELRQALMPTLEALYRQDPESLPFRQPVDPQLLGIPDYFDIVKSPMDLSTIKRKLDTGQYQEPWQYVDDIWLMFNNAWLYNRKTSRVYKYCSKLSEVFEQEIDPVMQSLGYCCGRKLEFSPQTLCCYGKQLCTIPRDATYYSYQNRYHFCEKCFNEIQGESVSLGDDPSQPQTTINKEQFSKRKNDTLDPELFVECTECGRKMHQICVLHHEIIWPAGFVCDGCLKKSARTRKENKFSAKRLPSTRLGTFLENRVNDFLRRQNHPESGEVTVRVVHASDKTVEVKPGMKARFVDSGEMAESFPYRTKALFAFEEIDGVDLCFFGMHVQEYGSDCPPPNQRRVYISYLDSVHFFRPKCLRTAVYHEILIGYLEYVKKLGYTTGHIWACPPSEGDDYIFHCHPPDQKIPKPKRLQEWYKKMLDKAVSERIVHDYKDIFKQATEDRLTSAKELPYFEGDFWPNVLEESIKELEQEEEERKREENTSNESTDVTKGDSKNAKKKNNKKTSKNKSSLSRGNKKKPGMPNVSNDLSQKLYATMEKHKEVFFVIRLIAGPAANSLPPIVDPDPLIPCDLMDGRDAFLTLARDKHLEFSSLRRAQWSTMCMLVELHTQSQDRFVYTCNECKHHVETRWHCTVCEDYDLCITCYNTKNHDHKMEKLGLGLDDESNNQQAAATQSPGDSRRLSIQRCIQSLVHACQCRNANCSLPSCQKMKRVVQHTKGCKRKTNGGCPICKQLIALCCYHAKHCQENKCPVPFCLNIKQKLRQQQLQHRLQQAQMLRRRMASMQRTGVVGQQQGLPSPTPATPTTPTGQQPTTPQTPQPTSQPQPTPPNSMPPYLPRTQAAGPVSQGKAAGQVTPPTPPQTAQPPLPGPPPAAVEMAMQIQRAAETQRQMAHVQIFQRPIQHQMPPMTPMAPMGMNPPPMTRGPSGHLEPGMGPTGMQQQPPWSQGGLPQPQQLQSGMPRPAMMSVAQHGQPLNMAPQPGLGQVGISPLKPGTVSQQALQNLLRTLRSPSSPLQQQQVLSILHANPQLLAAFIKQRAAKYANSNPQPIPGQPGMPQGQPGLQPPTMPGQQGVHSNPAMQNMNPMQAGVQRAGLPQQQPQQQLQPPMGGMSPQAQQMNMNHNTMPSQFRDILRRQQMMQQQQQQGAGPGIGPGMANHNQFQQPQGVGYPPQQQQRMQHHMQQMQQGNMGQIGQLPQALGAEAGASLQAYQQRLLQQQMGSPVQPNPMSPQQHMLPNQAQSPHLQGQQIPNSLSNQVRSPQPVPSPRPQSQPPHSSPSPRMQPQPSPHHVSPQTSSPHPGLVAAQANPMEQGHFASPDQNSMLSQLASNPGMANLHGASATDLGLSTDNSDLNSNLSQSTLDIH", "assay": "HAT activity kit (Biovision K332): inhibition of HAT activity of p300", "assay_type": "biochemical", "details": "for IC50: 0.5, 1, 10 or 100 μM; for HAT activity inhibitory effect (HAT p300 activity inhibited): Synthesis Examples diluted to 100 μM", "description": "Candidates 1 to 67, which are HAT inhibitors manufactured based on the PCAF structure, and HAT-24, HAT-26, and HAT-28 were diluted to 100 μM, and the degree of inhibition of HAT activity of p300 (inhibitory activity) was then determined using a kit for measuring HAT activity (Biovision, Cat No. K332, U.S.A) according to the method provided by the manufacturer. Here, the tissue was treated with C646 (HAT inhibitor) as a positive control.\nCandidates 1 to 14 having a good HAT activity inhibitory effect in Section were diluted to concentrations of 0.5 μM, 1 μM, 10 μM, and 100 μM. Thereafter, the degree of inhibition of HAT activity was determined in the same manner as in Section.\nEach of Synthesis Examples 1 to 24 was diluted to 100 μM, and the degree of inhibition of HAT p300 activity was determined in the same manner as in Section. Here, the tissues were treated with C646 and Candidate 12 (HAT-12) as the control instead of Synthesis Examples 1 to 24.", "data": [{"smiles": "COc1cc(/C=C/C(=O)c2cccc(C(N)=O)c2)cc(I)c1OCc1cccc(C(N)=O)c1", "note": "[Synthesis Example 6, (E)-3-(3-(4-((3-carbamoylbenzyl)oxy)-3-iodo-5-methoxyphenyl)acryloyl) benzamide]", "values": [{"measurement": "IC50", "value": 0.87, "unit": "µM"}, {"measurement": "HAT activity inhibitory effect (HAT p300 activity inhibited)", "value": "~100", "unit": "%"}]}, {"smiles": "COc1cc(/C=C/C(=O)c2cccc(O)c2)cc(Br)c1OCc1cccc(C(N)=O)c1", "note": "[Synthesis Example 8]", "values": [{"measurement": "IC50", "value": 1.06, "unit": "µM"}, {"measurement": "HAT activity inhibitory effect (HAT p300 activity inhibited)", "value": "~100", "unit": "%"}]}]}
